Article PMC10396955, “2-Oxabicyclo[2.1.1]hexanes as saturated bioisosteres of the ortho-substituted phenyl ring” (Nature Chemistry, 2023)

Legend:
[1] = Chemical stability of carboxylic acids (acid, base, storage); assay type: physicochemical; conditions: room temperature, one day
From the text: We also checked the chemical stability of three representative carboxylic acids, 1b, 19b and 22b (Table 2), because we suspected that some of them could decompose via a retro-Michael-type reaction. […] All products were crystalline solids, and we stored all of them in closed vials at room temperature on the shelf.

| SMILES | chemical stability ([1]; aqueous 1 M hydrochloric acid) | chemical stability ([1]; aqueous 1 M sodium hydroxide) | melting point [°C] |
| --- | --- | --- | --- |
| O=C(O)C1C2CC1(c1ccc(C(F)(F)F)cc1)CO2 (stereo not drawn) [Compound 19b] | did not lead to any decomposition | did not lead to any decomposition | 64 to 65 |
| Cc1cncc(C23COC(C2)C3C(=O)O)c1 (stereo not drawn) [Compound 22b] | did not lead to any decomposition | did not lead to any decomposition | 204 to 205 |
